Like-named read-outs stand apart in the source and are kept apart here.
Biological target: T1, mouse TMEM16A mutant R535A (Mus musculus, UniProt Q8BHY3, R535A)
T1 construct: expressed in transfected cells; host or cells: HEK293T
T1 sequence (Q8BHY3 1-960 R535A): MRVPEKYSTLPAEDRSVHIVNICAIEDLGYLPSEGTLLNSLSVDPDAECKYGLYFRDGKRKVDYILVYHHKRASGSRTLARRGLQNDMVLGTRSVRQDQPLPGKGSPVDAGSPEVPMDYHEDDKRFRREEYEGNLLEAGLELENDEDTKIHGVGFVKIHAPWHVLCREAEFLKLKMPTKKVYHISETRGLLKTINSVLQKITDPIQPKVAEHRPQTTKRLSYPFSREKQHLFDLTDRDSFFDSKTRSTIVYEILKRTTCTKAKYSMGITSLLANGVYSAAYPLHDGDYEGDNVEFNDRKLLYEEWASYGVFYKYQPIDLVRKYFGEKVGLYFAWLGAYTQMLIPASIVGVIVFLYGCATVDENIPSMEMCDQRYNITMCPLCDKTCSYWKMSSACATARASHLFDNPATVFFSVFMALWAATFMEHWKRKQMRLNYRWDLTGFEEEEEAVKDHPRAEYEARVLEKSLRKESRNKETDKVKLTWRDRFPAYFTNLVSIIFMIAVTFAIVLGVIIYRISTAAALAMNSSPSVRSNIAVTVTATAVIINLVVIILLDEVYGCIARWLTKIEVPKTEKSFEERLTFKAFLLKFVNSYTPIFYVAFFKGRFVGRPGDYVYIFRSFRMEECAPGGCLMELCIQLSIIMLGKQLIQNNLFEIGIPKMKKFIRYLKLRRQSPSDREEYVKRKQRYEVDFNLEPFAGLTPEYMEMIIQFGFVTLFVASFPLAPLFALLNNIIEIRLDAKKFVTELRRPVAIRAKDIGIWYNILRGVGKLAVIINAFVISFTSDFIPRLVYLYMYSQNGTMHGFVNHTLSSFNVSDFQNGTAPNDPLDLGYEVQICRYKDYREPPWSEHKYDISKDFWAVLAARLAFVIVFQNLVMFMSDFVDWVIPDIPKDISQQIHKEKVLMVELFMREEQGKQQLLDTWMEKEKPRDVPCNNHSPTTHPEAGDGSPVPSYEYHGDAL
Assay: Inside-out patch recording of 1PBC block, mutant R535A
Assay type: cell-based
Conditions: for remaining activity at 30 µM: 1PBC 30; for remaining activity at 30 µM / remaining activity at 100 µM: read-out: fraction of unblocked current; for remaining activity at 100 µM: 1PBC 100
Experimental: HEK293T cells (ATCC CRL-1573) were maintained in Dulbecco’s modified Eagle’s medium (DMEM; Sigma-Aldrich) supplemented with 10 U ml^−1 penicillin, 0.1 mg ml^−1 streptomycin (Sigma-Aldrich), 2 mM L-glutamine (Sigma-Aldrich), and 10% FBS (Sigma-Aldrich) in a humidified atmosphere containing 5% CO2 at 37 °C. HEK293S GnTI^− cells (ATCC CRL-3022) were maintained in HyClone HyCell TransFx-H medium (GE Healthcare) supplemented with 10 U ml^−1 penicillin, 0.1 mg ml^−1 streptomycin, 4 mM L-glutamine, 0.15% poloxamer 188 (Sigma-Aldrich), and 1% FBS in an atmosphere containing 5% CO2 at 185 rpm at 37 °C. The ac splice variant of mouse TMEM16A (UniProt ID: Q8BHY3), mouse TMEM16B (UniProt ID: Q8CFW1), or mouse TMEM16F (UniProt ID: Q6P9J9) bearing a 3C cleavage site, a Venus YFP, a Myc tag, and a Streptavidin-binding peptide (SBP) downstream of the open reading frame in a modified pcDNA3.1 vector (Invitrogen) were used as described previously[21],[31]. Mutations were introduced using a modified QuikChange method[58] and were verified by sequencing.
HEK293T cells were transfected with 3–4 μg DNA per 6 cm Petri dish using the calcium phosphate co-precipitation method and were used within 24–96 h after transfection. Recordings were performed on inside-out patches excised from HEK293T cells expressing the construct of interest. Patch pipettes were pulled from borosilicate glass capillaries (O.D. 1.5 mm, I.D. 0.86 mm, Sutter Instrument) and were fire-polished with a microforge (Narishige) before use. Pipette resistance was typically 3–8 MΩ when filled with the recording solutions detailed below. Seal resistance was typically 4 GΩ or higher. Voltage-clamp recordings were made using Axopatch 200B, Digidata 1550, and Clampex 10.7 (Molecular Devices). Analog signals were filtered with the in-built 4-pole Bessel filter at 10 kHz and were digitized at 20 kHz. Solution exchange was achieved using a gravity-fed system through a theta glass pipette mounted on an ultra-fast piezo-driven stepper (Siskiyou). […] All recordings were performed at 20 °C.
A symmetrical ionic condition was used throughout. Stock solution with Ca^2+-EGTA contained 150 mM NaCl, 5.99 mM Ca(OH)2, 5 mM EGTA, and 10 mM HEPES at pH 7.40. Stock solution with EGTA contained 150 mM NaCl, 5 mM EGTA, and 10 mM HEPES at pH 7.40. Free Ca^2+ concentrations were adjusted by mixing the stock solutions at the required ratios calculated using the WEBMAXC program (http://web.stanford.edu/~cpatton/webmaxcS.htm). Patch pipettes were filled with the stock solution with Ca^2+-EGTA, which has a free Ca^2+ concentration of 1 mM. 1PBC (ChemBridge) stock was reconstituted in anhydrous DMSO (Sigma-Aldrich) at 100 mM and stored at −20 °C. Working solutions with 1PBC were prepared by serial dilution. Unless otherwise stated, experiments were performed at a saturating Ca^2+ concentration as shown in Supplementary Table 1 and the primary data were corrected for current rundown as described previously[21],[25].
Concentration-response relations, obtained from the ratio of the I-V plots before and after the application of the blocker, were fitted to the Hill equation,1 I/Imax=1/1+IC50/[blocker]^h where I/Imax is the normalized current responses, IC50 defines the concentration at which inhibition is at its half-maximum, and h is the Hill coefficient.

remaining activity at 30 µM (-60 mV): 41.8%
remaining activity at 30 µM (-80 mV): 46.3%
remaining activity at 30 µM (-100 mV): 50.1%
remaining activity at 30 µM (-120 mV): 53.6%
remaining activity at 30 µM (-140 mV): 55.9%
remaining activity at 100 µM (0 mV): 10.2%
remaining activity at 100 µM (20 mV): 8.03%
remaining activity at 100 µM (40 mV): 6.85%
remaining activity at 100 µM (60 mV): 5.65%
remaining activity at 100 µM (80 mV): 5.26%
remaining activity at 100 µM (100 mV): 4.79%
remaining activity at 100 µM (120 mV): 4.05%
remaining activity at 100 µM (140 mV): 4.54%
remaining activity at 100 µM (-20 mV): 12.4%
remaining activity at 100 µM (-40 mV): 14.1%
remaining activity at 100 µM (-60 mV): 17.7%
remaining activity at 100 µM (-80 mV): 21.3%
remaining activity at 100 µM (-100 mV): 25.1%
remaining activity at 100 µM (-120 mV): 29%
remaining activity at 100 µM (-140 mV): 32.4%
IC50 (20 mV, 2 µM Ca2+): 9.48 µM
IC50 (40 mV, 2 µM Ca2+): 7.82 µM
IC50 (60 mV, 2 µM Ca2+): 6.65 µM
log-fold IC50 (change of mutant vs WT) (80 mV): 0.4043
IC50 (80 mV, 2 µM Ca2+): 6.02 µM
IC50 (100 mV, 2 µM Ca2+): 5.51 µM
IC50 (120 mV, 2 µM Ca2+): 5.53 µM
IC50 (140 mV, 2 µM Ca2+): 5.76 µM
IC50 (-20 mV, 2 µM Ca2+): 14.9 µM
IC50 (-40 mV, 2 µM Ca2+): 17.7 µM
IC50 (-60 mV, 2 µM Ca2+): 21.4 µM
IC50 (-80 mV, 2 µM Ca2+): 25.9 µM
IC50 (-100 mV, 2 µM Ca2+): 30.1 µM
IC50 (-120 mV, 2 µM Ca2+): 35.1 µM
IC50 (-140 mV, 2 µM Ca2+): 38.8 µM
IC50 (R535A, V 0 mV): 11.9 µM
IC50 (R535A, V 20 mV): 9.48 µM
IC50 (R535A, V 40 mV): 7.82 µM
IC50 (R535A, V 60 mV): 6.65 µM
IC50 (R535A, V 80 mV): 6.02 µM
IC50 (R535A, V 100 mV): 5.51 µM
IC50 (R535A, V 120 mV): 5.53 µM
IC50 (R535A, V 140 mV): 5.76 µM
IC50 (R535A, V -20 mV): 14.9 µM
IC50 (R535A, V -40 mV): 17.7 µM
IC50 (R535A, V -60 mV): 21.4 µM
IC50 (R535A, V -80 mV): 25.9 µM
IC50 (R535A, V -100 mV): 30.1 µM
IC50 (R535A, V -120 mV): 35.1 µM
IC50 (R535A, V -140 mV): 38.8 µM
SMILES: N#Cc1c(C(F)(F)F)cc(O)n2c1nc1ccccc12 [1PBC]

Reference: paper PMC9120017, “Inhibition mechanism of the chloride channel TMEM16A by the pore blocker 1PBC” (Nature Communications, 2022)
